This passage reports IC50 results from ChEMBL document CHEMBL1130906, “Actinomycin D, C2 and VII, inhibitors of Grb2-SHC interaction produced by Streptomyces” (Bioorg Med Chem Lett, 1998).

The test deals with Growth factor receptor-bound protein 2 (Homo sapiens, UniProt P62993). In words: Inhibition of GST-Grb2 Tyrosine kinase SH2 domain binding to [3H]labeled-phosphopeptide (Ac-SpYVNK-NH-C(O)-CH2CH2H3).

Each structure is given as a SMILES string. Numbered stars: 1 amine (or outer) side, 2 acyl side, 3 side chain; on linkers, the order of the positions; unused ones are H or OH. Bridge positions count the residues as written; N and C are the ends. Square brackets hold non-standard residues; d marks the D form. Peptide text beside a SMILES is read from it. I, II: the chains in the order shown. Actinocin(1to9) = Cc1c2oc3c(C)ccc(C(=O)[*:2])c3nc-2c(C(=O)[*:1])c(N)c1=O; Actinocin(9to1) = Cc1c2oc3c(C)ccc(C(=O)[*:1])c3nc-2c(C(=O)[*:2])c(N)c1=O; NMeV = CN[CH](C(=O)O)C(C)C; Sar = CNCC(=O)O

Sequence of Growth factor receptor-bound protein 2 (P62993 whole entry, the tested form may be a part): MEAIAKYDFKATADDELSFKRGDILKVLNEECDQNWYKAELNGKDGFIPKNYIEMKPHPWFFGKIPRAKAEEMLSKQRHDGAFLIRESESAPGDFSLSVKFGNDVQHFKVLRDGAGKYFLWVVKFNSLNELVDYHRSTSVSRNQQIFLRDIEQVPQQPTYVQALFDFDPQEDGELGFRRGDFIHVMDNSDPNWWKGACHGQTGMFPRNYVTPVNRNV

As a reminder, the IC50 is the concentration needed to halve the response being measured. Lower therefore signals greater potency. In turn, `CCC(C)C1NC(=O)C(NC(=O)c2c3nc4c(C(=O)NC5C(=O)NC(C(C)CC)C(=O)N6CCCC6C(=O)N(C)CC(=O)N(C)C(C(C)C)C(=O)OC5C)ccc(C)c4oc-3c(C)c(=O)c2N)C(C)OC(=O)C(C(C)C)N(C)C(=O)CN(C)C(=O)C2CCCN2C1=O` (stereo not drawn) (I: TIP[Sar][NMeV] / II: TIP[Sar][NMeV]; ester I:1-I:C, II:1-II:C; linker I:N-II:N via Actinocin(1to9); configuration not given here) yielded an IC50 of 7.6 µM.
Turning to `CC[C@H](C)[C@@H]1NC(=O)[C@@H](NC(=O)c2ccc(C)c3oc4c(C)c(=O)c(N)c(C(=O)N[C@@H]5C(=O)N[C@@H](C(C)C)C(=O)N6CCC[C@H]6C(=O)N(C)CC(=O)N(C)[C@@H](C(C)C)C(=O)O[C@@H]5C)c-4nc23)[C@@H](C)OC(=O)[C@H](C(C)C)N(C)C(=O)CN(C)C(=O)[C@@H]2CCCN2C1=O` (I: TIP[Sar][NMeV] / II: TVP[Sar][NMeV]; ester I:1-I:C, II:1-II:C; linker I:N-II:N via Actinocin(9to1)), the IC50 is 5.9 µM.
In turn, `Cc1c2oc3c(C)ccc(C(=O)N[C@@H]4C(=O)N[C@H](C(C)C)C(=O)N5CCC[C@H]5C(=O)N(C)CC(=O)N(C)[C@@H](C(C)C)C(=O)O[C@@H]4C)c3nc-2c(C(=O)N[C@@H]2C(=O)N[C@H](C(C)C)C(=O)N3CCC[C@H]3C(=O)N(C)CC(=O)N(C)[C@@H](C(C)C)C(=O)O[C@@H]2C)c(N)c1=O` [DACTINOMYCIN] (I: T[dV]P[Sar][NMeV] / II: T[dV]P[Sar][NMeV]; ester I:1-I:C, II:1-II:C; linker I:N-II:N via Actinocin(9to1)) returned a half-inhibitory concentration (IC50) of 5 µM.
